Columns and labels:
[1] = molecular target: T1, α6/α3β2β3^V273S receptor (Homo sapiens, UniProt Q15825, V273S); assay: Oocyte two-electrode voltage-clamp electrophysiology, α6/α3β2β3V273S; assay type: cell-based; settings: Xenopus laevis oocytes, fitted maximal current relative to acetylcholine; read-out: maximal efficacy compared to ACh
T1 construct: fused on or other part: P32297 (Neuronal acetylcholine receptor subunit alpha-3) P17787 (Neuronal acetylcholine receptor subunit beta-2)
Description: (§1) Two-electrode voltage-clamp electrophysiology recordings were done in Xenopus laevis oocytes injected with approximately 25 ng cRNA. After injection, oocytes were incubated at 17° C. for 2-3 days. During measurements, an oocyte was placed in a custom designed recording chamber where compound solutions are added directly to the oocyte via a glass capillary. Compound solutions were prepared on the day of measurement and applied to oocytes with a flowrate of 2.0 ml/min. All datasets were baseline subtracted and responses to individual applications were read as peak current amplitudes. Concentration response relationships describing compound effect at a fixed acetylcholine concentration were fitted to a monophasic Hill-equation. Potency (EC50) and efficacy values (fitted maximal current relative to maximal current of acetylcholine).

[2] = molecular target: T2, α7 (Homo sapiens, UniProt P36544); assay: Oocyte two-electrode voltage-clamp electrophysiology, α7; assay type: cell-based; settings: Xenopus laevis oocytes, peak currents
T2 construct: expressed in transfected cells; host or cells: Xenopus laevis oocytes injected with cRNA
Description: as §1

[3] = molecular target: T3, (Homo sapiens, UniProt P30926+P32297); assay: Oocyte two-electrode voltage-clamp electrophysiology, α3β4; assay type: cell-based; settings: Xenopus laevis oocytes
T3 construct: expressed in transfected cells; host or cells: Xenopus laevis oocytes injected with cRNA
Description: as §1

[4] = system: α4β2 cHS/cLS receptors; assay: Oocyte two-electrode voltage-clamp electrophysiology, α4β2; assay type: cell-based; settings: Xenopus laevis oocytes
Description: as §1

[5] = molecular target: α7 (Rattus norvegicus, UniProt Q05941); assay: biochemical; assay type: binding
[6] = molecular target: T4, neuromuscular nAChRs subtype composed of α1β1γδ subunits (Homo sapiens, UniProt P02708+P07510+Q07001); assay: biochemical; assay type: binding
T4 construct: endogenous in cells; host or cells: TE671

[7] = system: nicotinic receptors in the brain; assay type: in vivo, mice
Description: Accumulation of ^3H-epibatidine occurs preferentially in brain regions containing nicotinic receptors. […] The specific binding in thalamus reaches a maximum 30 min after an i.v. injection of ^3H-epibatidine and this maximum is maintained for another 30 min.
All test substances were administered as solutions or suspensions prepared in vehicle (e.g. saline, water, 5% glucose, 0.5% CMC, 0.5% HPMC or 10% HPβCD) and tested in serial 1:3 dilutions. Doses were adjusted for salt.
Groups of three female NMRI mice (25 g) were administered vehicle or test substance p.o. at a volume of 0.75 ml. Mice were injected i.v. via the tail vein with 1 μCi of ^3H-epibatidine in 0.2 ml saline 45 min before decapitation. At the time of decapitation, the thalamus and a piece of cerebellum were rapidly dissected on ice. Tissues were weighed and dissolved for 36 h with 1 ml 2% sodium-laurylsulfate. The solubilized tissue was then added 2 ml of scintillation cocktail, and the amount of radioactivity in the tissue was counted by conventional liquid scintillation counting. Groups of vehicle-treated mice served as controls. Non-specific binding was defined as the amount of binding in cerebellum in vehicle treated mice.
Specific binding was determined as the amount of binding (dpm/5 mg tissue) in thalamus minus the amount of binding in cerebellum (dpm/5 mg tissue) in vehicle mice. […]

[8] = system: nicotinic receptors; assay: 3H-epibatidin displacement studies in rats; assay type: in vivo
[9] = system: rat striatal synaptosomes; assay: 3H-dopamine release from rat striatal synaptosomes; assay type: cell-based; settings: fraction of release relative to total releasable dopamine
Description: Brains from Sprague-Dawley or Wistar rats (200-400 g) were dissected. Tissue from three rat brains yields enough material for one 96-well plate. Striata were dissected on an ice-chilled platform and placed in 12 ml ice-cold dissection buffer. The tissue was hereafter homogenized for 5-10 sec using a motor driven Teflon pestle in a glass homogenizing vessel. The homogenate was centrifuged at 1000×g for 10 min at 4° C. The resulting supernatant was then re-centrifuged at 12,000×g for 20 min at 4° C. The final crude P2 synatosomal fraction was re-suspended in oxygenated (equilibrated with an atmosphere of 96% O2: 4% CO2 for at least 30 min) Krebs bicarbonate buffer (0.5 ml/100 mg wet tissue weight) containing 100 nM ^3H-dopamine (3.9 μl/100 mg wet tissue weight) and incubated at 37° C. for 10 min. Pargyline was added to the buffer to prevent degradation of ^3H-dopamine.
The ^3H-dopamine loaded synaptosomes were centrifuged at 1000×g for 5 min at room temperature. […]
Following the collection of stimulated release, 75 μl Solvable™ was added to each well and allowed to incubate for at least 45 min to extract remaining ^3H-DA from the sample. […] Radioactivity from each collection was determined by conventional liquid scintillation counting using a Packard Topcount™ counter. […]

Chain of α7 (Rattus norvegicus, UniProt Q05941) (Q05941 23-502): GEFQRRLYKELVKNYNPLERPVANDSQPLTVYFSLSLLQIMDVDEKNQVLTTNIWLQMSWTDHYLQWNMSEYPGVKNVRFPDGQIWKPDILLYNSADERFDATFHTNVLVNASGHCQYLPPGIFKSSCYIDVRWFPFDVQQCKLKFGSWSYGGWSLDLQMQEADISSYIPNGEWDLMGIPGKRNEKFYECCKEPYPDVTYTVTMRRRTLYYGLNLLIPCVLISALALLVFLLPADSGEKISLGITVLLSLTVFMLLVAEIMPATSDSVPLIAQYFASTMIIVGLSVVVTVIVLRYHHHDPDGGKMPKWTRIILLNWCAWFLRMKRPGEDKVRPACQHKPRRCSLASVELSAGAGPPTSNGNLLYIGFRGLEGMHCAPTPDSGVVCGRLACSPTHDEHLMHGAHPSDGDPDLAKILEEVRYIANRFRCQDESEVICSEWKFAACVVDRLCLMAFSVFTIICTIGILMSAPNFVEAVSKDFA
T3 sequence (P32297 32-505): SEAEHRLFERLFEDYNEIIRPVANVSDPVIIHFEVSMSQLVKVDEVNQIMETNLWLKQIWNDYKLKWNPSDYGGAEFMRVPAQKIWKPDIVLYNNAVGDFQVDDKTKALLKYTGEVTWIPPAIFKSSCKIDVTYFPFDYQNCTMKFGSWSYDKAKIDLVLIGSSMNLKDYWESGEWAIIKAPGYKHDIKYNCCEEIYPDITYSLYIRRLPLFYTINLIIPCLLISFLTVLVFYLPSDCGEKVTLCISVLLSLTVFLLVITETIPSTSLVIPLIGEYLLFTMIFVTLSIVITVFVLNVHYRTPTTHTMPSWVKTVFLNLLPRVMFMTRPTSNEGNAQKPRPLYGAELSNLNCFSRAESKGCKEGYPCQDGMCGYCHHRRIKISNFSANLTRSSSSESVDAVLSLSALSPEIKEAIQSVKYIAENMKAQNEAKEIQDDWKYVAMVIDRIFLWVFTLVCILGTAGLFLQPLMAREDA
T3 sequence (P30926 22-498): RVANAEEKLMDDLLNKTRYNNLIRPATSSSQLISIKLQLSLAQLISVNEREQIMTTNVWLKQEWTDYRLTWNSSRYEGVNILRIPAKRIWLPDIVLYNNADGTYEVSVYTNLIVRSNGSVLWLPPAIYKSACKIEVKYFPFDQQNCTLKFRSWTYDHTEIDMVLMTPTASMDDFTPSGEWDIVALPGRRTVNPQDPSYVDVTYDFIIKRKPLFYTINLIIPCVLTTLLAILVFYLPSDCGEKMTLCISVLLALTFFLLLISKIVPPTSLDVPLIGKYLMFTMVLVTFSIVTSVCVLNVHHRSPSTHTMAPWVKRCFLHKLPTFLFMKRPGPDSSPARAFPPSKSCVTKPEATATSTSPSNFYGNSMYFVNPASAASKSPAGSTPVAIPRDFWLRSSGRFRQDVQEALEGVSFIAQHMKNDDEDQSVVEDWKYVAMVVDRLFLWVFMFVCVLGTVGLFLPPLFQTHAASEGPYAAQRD
T1 sequence (Q15825 26-239 limits assumed): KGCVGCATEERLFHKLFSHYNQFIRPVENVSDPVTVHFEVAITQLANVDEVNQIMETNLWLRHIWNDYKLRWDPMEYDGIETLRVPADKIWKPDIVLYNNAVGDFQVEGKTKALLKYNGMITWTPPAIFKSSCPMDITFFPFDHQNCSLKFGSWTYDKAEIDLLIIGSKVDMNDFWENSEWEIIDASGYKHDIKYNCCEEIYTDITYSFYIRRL
T1 sequence (P17787 26-502, further chain): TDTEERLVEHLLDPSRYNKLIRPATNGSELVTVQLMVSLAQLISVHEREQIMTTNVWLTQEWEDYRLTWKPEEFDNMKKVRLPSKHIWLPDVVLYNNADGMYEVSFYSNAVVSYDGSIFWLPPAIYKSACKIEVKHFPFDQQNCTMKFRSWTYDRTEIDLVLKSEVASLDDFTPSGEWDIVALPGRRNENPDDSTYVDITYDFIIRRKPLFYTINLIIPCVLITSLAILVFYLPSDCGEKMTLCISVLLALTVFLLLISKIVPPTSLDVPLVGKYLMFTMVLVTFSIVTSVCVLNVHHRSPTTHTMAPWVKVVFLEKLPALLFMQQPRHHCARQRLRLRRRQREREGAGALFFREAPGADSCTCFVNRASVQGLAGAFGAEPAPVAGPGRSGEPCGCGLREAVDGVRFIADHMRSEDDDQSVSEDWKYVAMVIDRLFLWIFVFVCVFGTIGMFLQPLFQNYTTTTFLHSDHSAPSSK
T1 sequence (Q05901 22-458 V273S, further chain): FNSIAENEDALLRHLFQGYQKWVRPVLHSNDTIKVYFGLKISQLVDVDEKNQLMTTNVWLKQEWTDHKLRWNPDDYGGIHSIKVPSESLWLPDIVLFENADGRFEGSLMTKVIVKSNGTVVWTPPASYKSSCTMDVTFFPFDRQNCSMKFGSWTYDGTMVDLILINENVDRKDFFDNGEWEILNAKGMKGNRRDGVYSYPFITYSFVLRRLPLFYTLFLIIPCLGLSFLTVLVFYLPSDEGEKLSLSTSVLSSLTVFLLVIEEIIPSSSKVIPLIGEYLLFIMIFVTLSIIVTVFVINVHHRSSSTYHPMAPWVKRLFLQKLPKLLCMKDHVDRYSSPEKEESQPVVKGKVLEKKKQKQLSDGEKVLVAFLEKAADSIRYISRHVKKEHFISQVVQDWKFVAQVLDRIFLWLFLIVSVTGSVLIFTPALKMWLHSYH
T4 sequence (P02708 21-457): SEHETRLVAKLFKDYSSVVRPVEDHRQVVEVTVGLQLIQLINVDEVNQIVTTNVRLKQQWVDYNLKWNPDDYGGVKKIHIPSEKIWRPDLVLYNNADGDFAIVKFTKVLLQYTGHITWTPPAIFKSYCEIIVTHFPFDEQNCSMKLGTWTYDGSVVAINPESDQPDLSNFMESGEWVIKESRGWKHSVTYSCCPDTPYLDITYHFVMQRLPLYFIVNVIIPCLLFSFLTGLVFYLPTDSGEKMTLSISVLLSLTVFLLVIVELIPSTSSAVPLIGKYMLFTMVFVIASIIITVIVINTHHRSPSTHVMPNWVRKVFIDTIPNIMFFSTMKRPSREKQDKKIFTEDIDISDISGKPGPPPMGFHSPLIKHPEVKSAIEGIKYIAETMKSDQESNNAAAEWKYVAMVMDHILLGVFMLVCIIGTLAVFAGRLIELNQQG
T4 sequence (Q07001 22-517): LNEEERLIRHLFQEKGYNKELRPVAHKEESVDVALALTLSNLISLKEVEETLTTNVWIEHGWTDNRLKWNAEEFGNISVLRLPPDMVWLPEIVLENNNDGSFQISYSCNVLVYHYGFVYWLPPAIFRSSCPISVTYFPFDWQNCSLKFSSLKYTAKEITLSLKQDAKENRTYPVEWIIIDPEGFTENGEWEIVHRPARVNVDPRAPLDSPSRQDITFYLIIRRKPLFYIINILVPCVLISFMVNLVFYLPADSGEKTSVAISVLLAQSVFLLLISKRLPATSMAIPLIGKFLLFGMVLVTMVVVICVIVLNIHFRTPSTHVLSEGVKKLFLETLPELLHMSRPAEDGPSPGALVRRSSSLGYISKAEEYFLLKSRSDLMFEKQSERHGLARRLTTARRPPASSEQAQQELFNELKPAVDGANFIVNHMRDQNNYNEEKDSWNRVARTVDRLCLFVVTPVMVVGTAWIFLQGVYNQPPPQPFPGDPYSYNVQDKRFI
T4 sequence (P07510 23-517): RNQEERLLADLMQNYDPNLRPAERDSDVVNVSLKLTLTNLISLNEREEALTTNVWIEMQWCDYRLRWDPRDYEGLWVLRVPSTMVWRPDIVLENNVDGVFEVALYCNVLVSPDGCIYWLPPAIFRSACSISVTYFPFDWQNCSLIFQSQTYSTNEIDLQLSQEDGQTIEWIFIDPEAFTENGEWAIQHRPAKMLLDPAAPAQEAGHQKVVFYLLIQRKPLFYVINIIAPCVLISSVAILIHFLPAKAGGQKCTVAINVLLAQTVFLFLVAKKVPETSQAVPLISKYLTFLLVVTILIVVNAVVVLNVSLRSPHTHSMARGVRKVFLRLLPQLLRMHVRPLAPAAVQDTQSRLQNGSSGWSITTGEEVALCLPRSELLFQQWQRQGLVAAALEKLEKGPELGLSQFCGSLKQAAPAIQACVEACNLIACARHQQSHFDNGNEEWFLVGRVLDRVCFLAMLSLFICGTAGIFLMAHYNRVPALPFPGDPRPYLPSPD
T4 sequence (P11230 24-501, further chain): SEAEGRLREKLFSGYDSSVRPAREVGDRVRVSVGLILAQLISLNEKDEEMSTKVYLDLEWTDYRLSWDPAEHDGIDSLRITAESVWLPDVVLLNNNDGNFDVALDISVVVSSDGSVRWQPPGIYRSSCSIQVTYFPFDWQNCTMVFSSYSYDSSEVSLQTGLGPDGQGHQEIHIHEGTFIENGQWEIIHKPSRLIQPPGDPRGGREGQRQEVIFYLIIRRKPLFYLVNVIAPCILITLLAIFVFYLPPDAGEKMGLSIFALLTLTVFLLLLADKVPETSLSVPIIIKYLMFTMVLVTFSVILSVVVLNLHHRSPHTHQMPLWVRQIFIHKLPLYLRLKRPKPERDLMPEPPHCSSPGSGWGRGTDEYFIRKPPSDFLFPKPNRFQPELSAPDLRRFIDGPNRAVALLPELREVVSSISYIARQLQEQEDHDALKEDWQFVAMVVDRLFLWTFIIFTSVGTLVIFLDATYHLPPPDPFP
T2 sequence (P36544 23-502): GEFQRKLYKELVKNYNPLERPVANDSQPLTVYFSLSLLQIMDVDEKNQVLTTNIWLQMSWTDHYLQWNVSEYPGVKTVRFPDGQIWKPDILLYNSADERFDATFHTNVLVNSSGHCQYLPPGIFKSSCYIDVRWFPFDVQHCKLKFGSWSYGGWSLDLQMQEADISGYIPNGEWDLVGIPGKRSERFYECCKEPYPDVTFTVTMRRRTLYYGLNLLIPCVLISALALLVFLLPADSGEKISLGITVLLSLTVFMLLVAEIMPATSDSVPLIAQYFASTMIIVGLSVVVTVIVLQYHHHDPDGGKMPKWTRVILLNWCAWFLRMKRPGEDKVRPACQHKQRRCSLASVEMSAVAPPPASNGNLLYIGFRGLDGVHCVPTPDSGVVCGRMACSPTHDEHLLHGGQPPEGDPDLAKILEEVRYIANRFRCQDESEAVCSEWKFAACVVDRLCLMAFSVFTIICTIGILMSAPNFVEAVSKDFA

## CN1C2CCCC1CN(c1cccnc1)C2 [9-methyl-3-pyridin-3-yl-3,9-diaza-bicyclo[3.3.1]nonane]
[1]
  Emax: 27%
[2]
  EC50: 13000 nM
[3]
  efficacy: practically no efficacy
[4]
  efficacy: practically no efficacy
[5]
  Ki: 290 nM
[6]
  Ki: 320 nM
[7]; mice pre-dosed for 45 min, p.o.
  ED50, inhibition of specific binding of 3H-epibatidine: 1.3 mg/kg
[7]; mice, 2 mg/kg p.o., time course up to 6 hours
  maintained brain exposure (duration): at least 6 hours
[8]
  dose giving half maximal displacement of specific binding of 3H-epibatidin: 0.15 mg/kg
[9]
  3H-dopamine release: concentration-dependently stimulates
